According to ChEMBL document CHEMBL4665709, “Rational Avoidance of Protease Cleavage Sites and Symmetrical End-Tagging Significantly Enhances the Stability and Therapeutic Potential of Antimicrobial Peptides” (J Med Chem, 2020):
≈ marks a conversion by molar mass, not a printed value. Where a SMILES comes first, the peptide text is derived from it.

Key:
[1] = Cytotoxicity against mouse RAW264.7 cells assessed as cell viability at 128 uM by MTT assay relative to control; type: cell-based; conditions: read-out: Activity
Escherichia coli [2] = assay: Antibacterial activity against Escherichia coli ATCC 25922 after 18 to 24 hrs by CLSI-based broth microdilution method; type: functional; conditions: time hrs 18-24
Streptococcus agalactiae = assay: Antibacterial activity against Streptococcus agalactiae H92 after 18 to 24 hrs by CLSI-based broth microdilution method; type: functional; conditions: time hrs 18-24
[3] = Cytotoxicity against HEK-293T cells assessed as cell viability at 128 uM by MTT assay relative to control; type: cell-based; conditions: human, read-out: Activity
Enterococcus faecalis = assay: Antibacterial activity against Enterococcus faecalis ATCC 29212 after 18 to 24 hrs by CLSI-based broth microdilution method; type: functional; conditions: time hrs 18-24
Salmonella typhimurium [4] = assay: Antibacterial activity against Salmonella typhimurium 7731 after 18 to 24 hrs by CLSI-based broth microdilution method; type: functional, Salmonella enterica subsp. enterica serovar Typhimurium; conditions: Salmonella enterica, time hrs 18-24
[5] = Therapeutic index, ratio of MHC for human RBC to geometric mean of peptide MIC for Staphylococcus aureus ATCC 29213; type: toxicity; conditions: human red blood cells (RBC), read-out: TI
Staphylococcus aureus [6] = assay: Antibacterial activity against Staphylococcus aureus ATCC 29213 after 18 to 24 hrs by CLSI-based broth microdilution method; type: functional; conditions: time hrs 18-24
[7] = Therapeutic index, ratio of MHC for human RBC to geometric mean of peptide MIC for Salmonella choleraesuis 503; type: toxicity; conditions: human red blood cells (RBC), read-out: TI
Escherichia coli [8] = assay: Antibacterial activity against Escherichia coli UB1005 after 18 to 24 hrs by CLSI-based broth microdilution method; type: functional; conditions: time hrs 18-24
Salmonella enterica = assay: Antibacterial activity against Salmonella choleraesuis 503 after 18 to 24 hrs by CLSI-based broth microdilution method; type: functional; conditions: time hrs 18-24
[9] = Therapeutic index, ratio of MHC for human RBC to geometric mean of peptide MIC for Escherichia coli UB1005; type: toxicity; conditions: human red blood cells (RBC), read-out: TI
[10] = Antibacterial activity against Salmonella pullorum 7913 after 18 to 24 hrs by CLSI-based broth microdilution method; type: functional, Salmonella enterica subsp. enterica serovar Pullorum; conditions: Salmonella enterica, time hrs 18-24
[11] = Therapeutic index, ratio of MHC for human RBC to geometric mean of peptide MIC for Staphylococcus aureus 11011; type: toxicity; conditions: human red blood cells (RBC), read-out: TI
[12] = Therapeutic index, ratio of MHC for human RBC to geometric mean of peptide MIC for Salmonella typhimurium 14028; type: toxicity; conditions: human red blood cells (RBC), read-out: TI
[13] = Therapeutic index, ratio of MHC for human RBC to geometric mean of peptide MIC for Enterococcus faecalis ATCC 29212; type: toxicity; conditions: human red blood cells (RBC), read-out: TI
Staphylococcus aureus [14] = assay: Antibacterial activity against methicillin-resistant Staphylococcus aureus 43300 after 18 to 24 hrs by CLSI-based broth microdilution method; type: functional; conditions: time hrs 18-24
Salmonella typhimurium [15] = assay: Antibacterial activity against Salmonella typhimurium 14028 after 18 to 24 hrs by CLSI-based broth microdilution method; type: functional, Salmonella enterica subsp. enterica serovar Typhimurium; conditions: Salmonella enterica, time hrs 18-24
Staphylococcus aureus [16] = assay: Antibacterial activity against Staphylococcus aureus 11011 after 18 to 24 hrs by CLSI-based broth microdilution method; type: functional; conditions: time hrs 18-24
[17] = Therapeutic index, ratio of MHC for human RBC to geometric mean of peptide MIC for Streptococcus agalactiae H92; type: toxicity; conditions: human red blood cells (RBC), read-out: TI
[18] = Hemolytic activity in human RBC assessed as hemolysis at 1 to 128 uM relative to control; type: ADME, cell-based, Erythrocyte; conditions: human red blood cells (RBC), dose 1-128 µM, read-out: Activity
[19] = Therapeutic index, ratio of MHC for human RBC to geometric mean of peptide MIC for methicillin-resistant Staphylococcus aureus 43300; type: toxicity; conditions: human red blood cells (RBC), read-out: TI
[20] = Therapeutic index, ratio of MHC for human RBC to geometric mean of peptide MIC for Salmonella pullorum 7913; type: toxicity; conditions: human red blood cells (RBC), read-out: TI
[21] = Therapeutic index, ratio of MHC for human RBC to geometric mean of peptide MIC for Staphylococcus epidermidis ATCC 12228; type: toxicity; conditions: human red blood cells (RBC), read-out: TI
[22] = Therapeutic index, ratio of MHC for human RBC to geometric mean of peptide MIC for Escherichia coli ATCC 25922; type: toxicity; conditions: human red blood cells (RBC), read-out: TI
[23] = system: Staphylococcus epidermidis; assay: Antibacterial activity against Staphylococcus epidermidis ATCC 12228 after 18 to 24 hrs by CLSI-based broth microdilution method; type: functional; conditions: time hrs 18-24
[24] = Therapeutic index, ratio of MHC for human RBC to geometric mean of peptide MIC for Salmonella typhimurium 7731; type: toxicity; conditions: human red blood cells (RBC), read-out: TI
Erythrocyte = assay: Hemolytic activity in human RBC assessed as hemolysis; type: ADME, cell-based

Structure (SMILES) | viability at 128 µM [1] [%] | MIC (Escherichia coli [2]) [µM] | MIC (Streptococcus agalactiae) [µM] | viability at 128 µM [3] [%] | MIC (Enterococcus faecalis) [µM] | MIC (Salmonella typhimurium [4]) [µM] | selectivity ratio [5] | MIC (Staphylococcus aureus [6]) [µM] | selectivity ratio [7] | MIC (Escherichia coli [8]) [µM] | MIC (Salmonella enterica) [µM] | selectivity ratio [9] | MIC [10] [µM] | selectivity ratio [11] | selectivity ratio [12] | selectivity ratio [13] | MIC (Staphylococcus aureus [14]) [µM] | MIC (Salmonella typhimurium [15]) [µM] | MIC (Staphylococcus aureus [16]) [µM] | selectivity ratio [17] | also measured
CC[C@H](C)[C@H](N)C(=O)N[C@H](C(=O)N[C@H](C(=O)N[C@@H](CS)C(=O)N[C@@H](CCCNC(=N)N)C(=O)N[C@@H](CCCCN)C(=O)N1CCC[C@H]1C(=O)N[C@H](C(=O)N[C@H](C(=O)N[C@@H](CS)C(=O)N[C@@H](CCCNC(=N)N)C(=O)N[C@@H](CCCCN)C(=O)N1CCC[C@H]1C(=O)N[C@H](C(=O)N[C@H](C(=O)N[C@@H](CS)C(=O)N[C@@H](CCCNC(=N)N)C(=O)N[C@@H](CCCCN)C(=O)N1CCC[C@H]1C(=O)N[C@H](C(=O)N[C@H](C(=O)N[C@H](C(N)=O)[C@@H](C)CC)[C@@H](C)CC)[C@@H](C)CC)[C@@H](C)CC)[C@@H](C)CC)[C@@H](C)CC)[C@@H](C)CC)[C@@H](C)CC)[C@@H](C)CC (H-IIICRKPIICRKPIICRKPIII-NH2) | > 90 | 4 (≈ 10.4 µg/mL) | 16 (≈ 41.6 µg/mL) | > 90 | > 64 | 8 (≈ 20.8 µg/mL) | 2.52 | > 64 | 16 | 4 (≈ 10.4 µg/mL) | 16 (≈ 41.6 µg/mL) | 16 | 16 (≈ 41.6 µg/mL) | 2.52 | 16 | 2.52 | > 64 | 8 (≈ 20.8 µg/mL) | > 64 | 2.52 | hemolysis at up to 128 µM [18]: < 5%; selectivity ratio [19]: 2.52; selectivity ratio [20]: 16; selectivity ratio [21]: 2.52; selectivity ratio [22]: 16; MIC [23]: > 64 µM; selectivity ratio [24]: 16; MHC (Erythrocyte): > 128 µM
CC[C@H](C)[C@H](N)C(=O)N[C@H](C(=O)N[C@@H](CS)C(=O)N[C@@H](CCCNC(=N)N)C(=O)N[C@@H](CCCCN)C(=O)N1CCC[C@H]1C(=O)N[C@H](C(=O)N[C@H](C(=O)N[C@@H](CS)C(=O)N[C@@H](CCCNC(=N)N)C(=O)N[C@@H](CCCCN)C(=O)N1CCC[C@H]1C(=O)N[C@H](C(=O)N[C@H](C(=O)N[C@@H](CS)C(=O)N[C@@H](CCCNC(=N)N)C(=O)N[C@@H](CCCCN)C(=O)N1CCC[C@H]1C(=O)N[C@H](C(=O)N[C@H](C(=O)N[C@@H](CS)C(=O)N[C@@H](CCCNC(=N)N)C(=O)N[C@@H](CCCCN)C(=O)N1CCC[C@H]1C(=O)N[C@H](C(=O)N[C@H](C(=O)N[C@@H](CS)C(=O)N[C@@H](CCCNC(=N)N)C(=O)N[C@@H](CCCCN)C(=O)N1CCC[C@H]1C(=O)N[C@H](C(=O)N[C@H](C(N)=O)[C@@H](C)CC)[C@@H](C)CC)[C@@H](C)CC)[C@@H](C)CC)[C@@H](C)CC)[C@@H](C)CC)[C@@H](C)CC)[C@@H](C)CC)[C@@H](C)CC)[C@@H](C)CC)[C@@H](C)CC (H-IICRKPIICRKPIICRKPIICRKPIICRKPII-NH2) | > 90 | 2 (≈ 7.6 µg/mL) | > 64 | > 90 | > 64 | 2 (≈ 7.6 µg/mL) | 2 | > 64 | 40.3 | 2 (≈ 7.6 µg/mL) | 4 (≈ 15.2 µg/mL) | 40.3 | 8 (≈ 30.4 µg/mL) | 2 | 40.3 | 2 | 64 (≈ 243 µg/mL) | 4 (≈ 15.2 µg/mL) | > 64 | 2 | hemolysis at up to 128 µM [18]: < 5%; selectivity ratio [19]: 2; selectivity ratio [20]: 40.3; selectivity ratio [21]: 2; selectivity ratio [22]: 40.3; MIC [23]: 64 µM (≈ 243 µg/mL); selectivity ratio [24]: 40.3; MHC (Erythrocyte): > 128 µM
CC(C)[C@H](N)C(=O)N[C@@H](CS)C(=O)N[C@@H](CCCNC(=N)N)C(=O)N[C@@H](CCCCN)C(=O)N1CCC[C@H]1C(=O)N[C@H](C(=O)N[C@H](C(=O)N[C@@H](CS)C(=O)N[C@@H](CCCNC(=N)N)C(=O)N[C@@H](CCCCN)C(=O)N1CCC[C@H]1C(=O)N[C@H](C(=O)N[C@H](C(=O)N[C@@H](CS)C(=O)N[C@@H](CCCNC(=N)N)C(=O)N[C@@H](CCCCN)C(=O)N1CCC[C@H]1C(=O)N[C@H](C(N)=O)C(C)C)C(C)C)C(C)C)C(C)C)C(C)C (H-VCRKPVVCRKPVVCRKPV-NH2) | > 90 | 8 (≈ 16.5 µg/mL) | > 64 | > 90 | > 64 | 16 (≈ 33.1 µg/mL) | 2 | > 64 | 6.35 | 16 (≈ 33.1 µg/mL) | > 64 | 6.35 | > 64 | 2 | 6.35 | 2 | > 64 | 8 (≈ 16.5 µg/mL) | > 64 | 2 | hemolysis at up to 128 µM [18]: < 5%; selectivity ratio [19]: 2; selectivity ratio [20]: 6.35; selectivity ratio [21]: 2; selectivity ratio [22]: 6.35; MIC [23]: > 64 µM; selectivity ratio [24]: 6.35; MHC (Erythrocyte): > 128 µM
